Experimental data as given in patent US7482307B2, “Herbicide composition” (Sumitomo Chemical Company, Limited, priority 2001, dated 2009).

Experiments:
[1] = tested on: yellow nutsedge (Cyperus esculentus); test: Test Example 1: foliar spray herbicide effect on yellow nutsedge in greenhouse pots; format: in vivo; conditions: evaluated 25 days after treatment, level 0-10
Protocol: (§1) Evaluation of phytotoxicity against a crop was shown by “no” when almost no phytotoxicity was observed, “low” when a low level phytotoxicity was observed, “medium” when a medium level phytotoxicity was observed and “high” when a high level phytotoxicity was observed.
(§2) A plastic pot of 11 cm in diameter and 8 cm in depth was filled with field soil. A tuber of yellow nutsedge (Cyperus esculentus) was planted and grown in a greenhouse for 21 days.
(§3) An emulsion of Compound A-1 was prepared by sufficiently mixing 5 parts of Compound A-1, 6 parts of Sorpol 3005× (surfactant, produced by Toho Chemical) and 89 parts of xylene.
(§4) Each of • single use of an emulsion of Compound A-1, • single use of an formulation of Imazethapyr (commercial name: Pursuit, produced by American Cyanamid, containing 24% of imazethapyr), • single use of an formulation of Imazamox (commercial name: Raptur, produced by American Cyanamid, containing 12.1% of imazamox), • a mixed composition of an emulsion of Compound A-1 and an formulation of Imazethapyr, and • a mixed composition of an emulsion of Compound A-1 and an formulation of Imazamox, were diluted with water containing 1% Agri-dex (produced by Helena). Respective dilutions were uniformly sprayed from upper side onto foliages of yellow nutsedge grown as described above with a small sprayer such that the amounts of the active ingredients were the amounts shown in Table 4. Immediately after the treatment with the test compounds, seeds of soybean were sown.
(§5) After the treatment, they were raised in a greenhouse for 25 days and the effect against weeds was evaluated. In addition, after 14 days of the treatment, the phytotoxicity to soybean was evaluated.

[2] = tested on: soybean; test: Test Example 1: phytotoxicity to soybean sown immediately after treatment; format: in vivo; conditions: evaluated after 14 days
Protocol: as §1, §2, §3
as §4, with “Respective dilutions were uniformly sprayed from upper side onto foliages of yellow nutsedge grown as described above with a small sprayer such that the amounts of the active ingredients were the amounts shown in Table 4. Immediately after the treatment with the test compounds, seeds of soybean were sown.” left out
as §5

For `COCc1cnc(C2=NC(C)(C(C)C)C(=O)N2)c(C(=O)O)c1` (stereo not drawn) [Imazamox, 2-(4-isopropyl-4-methyl-5-oxo-2-imidazolin-2-yl)-5-(methoxymethyl)nicotinic acid], the “Herbicide Effect yellow nutsedge” value ([1]; 10 g/ha active ingredient) was 1, the “Herbicide Effect yellow nutsedge” value ([1]; 40 g/ha active ingredient) was 2 and the Phytotoxicity soybean ([2]; 10 g/ha active ingredient) was “no”. The Phytotoxicity soybean ([2]; 40 g/ha active ingredient) was “no”.
For `CCc1cnc(C2=NC(C)(C(C)C)C(=O)N2)c(C(=O)O)c1` (stereo not drawn) [Imazethapyr, 5-ethyl-2-(4-isopropyl-4-methyl-5-oxo-2-imidazolin-2-yl)nicotinic acid], the “Herbicide Effect yellow nutsedge” value ([1]; 20 g/ha active ingredient) was 1 and the “Herbicide Effect yellow nutsedge” value ([1]; 80 g/ha active ingredient) was 2.
